# Experimental data as given in patent US20240148728A1, “NOVEL METHOD TO BLOCK IN[…] DEATH AND IL-1BETA SECRETION CAUSED BY […] UV I[…] GENETIC AND CHEMICAL INHIBITORS OF ZAKA AND THE NLRP1 INFLAMMASOME” (priority 2021, published 2024).
# “Also recorded” adds a separate entry of the source.
# What was measured:
# HB-EGF = HB-EGF expression by RNAseq after TNFα priming; assay type: cell-based, human; details: FKPM by RNAseq
# Protocol: Library preparation, QC and high-throughput sequencing were provided by Macrogen, Singapore. RNA isolation and library preparation was carried out as previously described [Robinson et al., Science (2020)].
# [1] = system: immortalized keratinocytes (N-TERT); experiment: Pyroptosis / apoptosis in N-TERT keratinocytes (morphology, ASC-GFP, PI, Annexin V, immunoblot); assay type: cell-based, human; details: for mode of cell death (apoptosis / pyroptosis): Annexin V staining and PI inclusion, immunoblot markers
# Source text: (§1) The following antibodies were used in this study: cleaved PARP1 (Abclonal, #WH162766), Cleaved CASP3 (Abclonal, #WH154646), Full length GSDMD-FL (Abcam, #ab210070), IL1β p17 specific (CST, #83186S), CARD8 (Abcam, CARD8-NT: ab19485, CARD8-CT: ab241186), DPP9 (Abcam, ab226334), c-Myc (Santa Cruz Biotechnology, #sc-40), HA tag (Santa Cruz Biotechnology, #sc-805), GAPDH (Santa Cruz Biotechnology, #sc-47724), ASC (Adipogen, #AL-177), CASP1 (Santa Cruz Biotechnology, #sc-622), 11_1B (R&D systems, #AF-201), FLAG (SigmaAldrich, #F3165), NLRP1 (R&D systems, #AF6788), IL18 (Abcam ab207324), cleaved GSDMD-NT (Asp275) (Cell Signaling Technology, #36425), RPL31 (Abclonal, #WH162766), CASP7 (Abcam, ab255818), CASP8 (Abcam, ab32397), cleaved CASP3 (Cell Signaling Technology, #9664). All horseradish peroxidase (HRP)— conjugated secondary antibodies were purchased from Jackson Immunoresearch (goat anti-mouse IgG: 115-035-166; goat anti-rabbit IgG: 111-035-144; and donkey anti-goat IgG: 705-005-147). Blue-Native PAGE was carried out using the Native-PAGE system (ThermoFisher) with 10-20 μg of total lysate. For SDS-PAGE using whole cell lysates, cells were resuspended in tris-buffered saline 1% NP-40 with protease inhibitors (Thermo Scientific, #78430). Protein concentration was determined using the Bradford assay (Thermo Scientific, #23200) and […] of protein loaded, a part from cleaved GSDMD-NT visualisation where […] of protein was used. All primary antibodies were used at 250 ng/ml. Visualisation of ASC oligomerization was previously described (Robinson et al., 2020). For analysis of IL1β and IL-18 cleavage in the media by immunoblotting, samples were concentrated using filtered centrifugation (Merck, Amicon Ultra, #UFC5003BIK). Protein samples were run using immunoblotting, and then visualized using a ChemiDoc Imaging system (Bio-Rad). PhosTag SDS-PAGE was carried out using homemade 10% SDS-PAGE gel, with addition of Phos-tag Acrylamide (Wako Chemicals, AAL-107) to a final concentration of 30 μM and manganese chloride(II) (Sigma-Aldrich, #63535) to 60 μM.
# N-TERT-ASC-GFP cells were seeded at a cell density of 3000 cells/well of a 96 black well plate (PerkinElmer, CellCarrier-96 Ultra, #6055300). The next morning cells were treated with chemicals for 6 h or treated in the evening for 24 h before staining. 1 hour before observing the cells on the microscope the cells were stained with 1 μg/ml dilution of propidium iodide (PI, Abcam #ab14083), 10 ng/ml dilution of Hoechst 33342 (Life Technologies, #H21492) or stained with Annexin V Alexa Flour 647 (Life technologies, #A23204) according to the manufacturer's protocol. Stained cells were then imaged on a high content screening microscope (Perkin Elmer Operetta CLS imaging system). Images were then stored and analyzed using the Harmony software (Version 6). Fluorescent and brightfield images acquired on the Operetta high content screening microscope were further analyzed using a scoring system to categorize the percentages of live, apoptotic and pyroptotic cells. For 3 fields of view per treatment the number of live cells per field was counted from the merge of the brightfield and ASC-GFP channels. Only cells which contained ASC-GFP throughout the cytoplasm and nucleus were classed as “live”. The number of pyroptotic cells was calculated using the merge of the brightfield and ASC-GFP channels. Only the cells with GFP specks were classed as “pyroptotic”. The number of apoptotic cells was calculated using the merge of the brightfield, ASC-GFP and Annexin V channels. Cells that were stained positive for Annexin V but without a GFP speck were classified as “apoptotic”. Images of ASC-GFP specks were acquired in 3 random fields in 4′,6-diaminidino-2-phenylindole (DAPI, 358 nm/461) and GFP (469 nm/525 nm) channels using the EVOS microscope (FL Auto M5000, #AM F5000) according to the manufacturer's protocol. […]
# 3D organotypic skin = experiment: Secreted cytokines/chemokines from 3D organotypic skin (ELISA, Luminex); assay type: cell-based, human
# Protocol: Organotypic cultures were generated by adapting a previously described protocol (Arnette et al., 2016). Briefly, 2 ml of collagen I (4 mg/ml; Corning, #354249) mixed with 7.5×10^5 human fibroblasts were allowed to polymerize over 1-m1 acellular collagen I in 6-well culture inserts (Falcon, #353102) placed in 6-well deep well plate (Falcon, #355467). After 24 hours, 1×10^6 primary human keratinocytes were seeded into the inserts and kept submerged in a 3:1 DMEM (Hyclone, #SH30243.01) and F12 (Gibco, #31765035) mixture with 10% FBS (Hyclone, #SV30160.03), 100 U/ml penicillin-streptomycin (Gibco, #15140122), 10 μM Y-27632 (Tocris, #1254), 10 ng/ml EGF (Sigma-Aldrich, #E9644), 1×10^−10 M cholera toxin (Enzo, #BML-G117-001), 0.4 μg/ml hydrocortisone (Sigma-Aldrich, #H0888), 0.0243 mg/ml adenine (Sigma-Aldrich, #A2786), 5 μg/ml insulin (Sigma-Aldrich, #12643), 5 μg/ml transferrin (Sigma-Aldrich, #T2036) and 2×10^−9 M 3,3′,5′-triiodo-L-thyronine (Sigma-Aldrich, #T6397). After another 24 hours, the organotypic cultures were then raised at the air-liquid interface and fed with the submerged media (without Y-27632 and EGF) below the insert to induce epidermal differentiation. The air-lifting medium was replaced every 2 days and treatments began 10-14 days after airlifting. Organotypic cultures were then harvested 24 hours after treatment and formalin fixed for 24 hours. […]
# N-TERT cells = experiment: Secreted IL1β / inflammasome activation in N-TERT cells; assay type: cell-based, human; details: ZAKα KO N-TERT cells
# Protocol: To measure secreted cytokine and chemokine levels a human IL1β enzyme linked immunosorbent assay (ELISA) kit (BD, #557953), human IL-18 ELISA kit (MBL, #7620) or an Immune Monitoring 65-Plex Human ProcartaPlex Panel (EPX650-10065-901) were used according to manufacturer's protocols. Further analysis of Luminex or ELISA profiling of samples was performed using heatmap and PCA analysis on Clustervis (biitdotcsdotutdotee/clustvis/) [Somani et al., Proceeding of SSIC (2019)].
# as §1
# [2] = system: 3D human organotypic skin; experiment: 3D organotypic skin histology and cleaved GSDMD-NT immunostaining; assay type: cell-based; details: immunostaining
# Protocol: Organotypic cultures were generated by adapting a previously described protocol (Arnette et al., 2016). Briefly, 2 ml of collagen I (4 mg/ml; Corning, #354249) mixed with 7.5×10^5 human fibroblasts were allowed to polymerize over 1-m1 acellular collagen I in 6-well culture inserts (Falcon, #353102) placed in 6-well deep well plate (Falcon, #355467). After 24 hours, 1×10^6 primary human keratinocytes were seeded into the inserts and kept submerged in a 3:1 DMEM (Hyclone, #SH30243.01) and F12 (Gibco, #31765035) mixture with 10% FBS (Hyclone, #SV30160.03), 100 U/ml penicillin-streptomycin (Gibco, #15140122), 10 μM Y-27632 (Tocris, #1254), 10 ng/ml EGF (Sigma-Aldrich, #E9644), 1×10^−10 M cholera toxin (Enzo, #BML-G117-001), 0.4 μg/ml hydrocortisone (Sigma-Aldrich, #H0888), 0.0243 mg/ml adenine (Sigma-Aldrich, #A2786), 5 μg/ml insulin (Sigma-Aldrich, #12643), 5 μg/ml transferrin (Sigma-Aldrich, #T2036) and 2×10^−9 M 3,3′,5′-triiodo-L-thyronine (Sigma-Aldrich, #T6397). After another 24 hours, the organotypic cultures were then raised at the air-liquid interface and fed with the submerged media (without Y-27632 and EGF) below the insert to induce epidermal differentiation. The air-lifting medium was replaced every 2 days and treatments began 10-14 days after airlifting. Organotypic cultures were then harvested 24 hours after treatment and formalin fixed for 24 hours. Fixed tissues were then embedded into wax for histological purposes.
# For immunohistochemistry staining of cleaved N-terminal GSDMD a previously established protocol with modifications was used [Wang et al., Cell 180:941-955.e20 (2020)]. Briefly, 5 μm formalin fixed and paraffin embedded sections were deparaffinized and rehydrated through a series of alcohol. The sections were then rehydrated in an antigen retrieval buffer (Dako, Tris-EDTA, pH 9). Sections were then blocked in goat serum for 20 mins at RT before primary antibody incubated overnight at 4° C. Immunostaining was visualised using DAB substrate and chromogen detection kit (Dako, #K3468). Sections were then counterstained with Myer's Hematoxylin.
# ASC = experiment: Phosphorylation of inflammasome adaptor ASC; assay type: cell-based, human; details: data not shown
# NLRP1^DR = experiment: NLRP1 PYD-DR1 / NLRP1^DR phosphorylation (GFP fusion, immunoblot, PhosTag SDS-PAGE) in N-TERT cells; assay type: cell-based, human; details: NLRP1 KO N-TERT cells expressing GFP-tagged NLRP1^DR; various kinase inhibitors
# Source text: as §1
# Cells were directly harvested using Laemmli buffer, lysed with an ultrasonicator, and loaded into the Phos-tag gel to run. Once the run was completed, the polyacrylamide gel was washed in transfer buffer with 10 mM EDTA twice, subsequently washed without EDTA twice, blotted onto 0.45 μm PVDF membranes (Bio-rad), blocked with 3% milk, and incubated with primary and corresponding secondary antibodies.
# human skin explants = experiment: UVB-induced IL1β in human skin explants; details: UVB 100 or 250 mJ/cm^2, harvest 24 hours later
# Source text: Waste surgical skin tissues from abdomen and breast were collected with appropriate informed consent of the patients and sent to the Asian Skin Biobank (ASB worldwidewebdota-stardotedudotsg/sris/technology-platforms/asian-skin-biobank) at the Skin Research Institute of Singapore (SRIS) (under A*STAR IRB 2020-209). Fresh skin tissue was cleaned in solutions of HBSS with decreasing concentrations of Penicillin, Streptomycin and Fungizone. Then 8-mm skin biopsies were punched and submerged in culture media. Skin explants were immediately irradiated with UVB or treated with VbP.
# For UVA and UVB irradiation experiments, cells were seeded 24 hours prior to irradiation, and washed once in phosphate buffered saline pH 7.4 before being exposed to indicated dose of irradiation using a BIO-SUN microprocessor controlled, cooled UV irradiation system (BIO-SUN, Vilber). After exposure, PBS was replaced by keratinocyte medium and cells were incubated for indicated time.
# To measure secreted cytokine and chemokine levels a human IL1β enzyme linked immunosorbent assay (ELISA) kit (BD, #557953), human IL-18 ELISA kit (MBL, #7620) or an Immune Monitoring 65-Plex Human ProcartaPlex Panel (EPX650-10065-901) were used according to manufacturer's protocols. […]
# ZAKα = ZAKα (Homo sapiens, UniProt Q9NYL2); details: cited from earlier work
# Chain of ZAKα (Q9NYL2 whole entry): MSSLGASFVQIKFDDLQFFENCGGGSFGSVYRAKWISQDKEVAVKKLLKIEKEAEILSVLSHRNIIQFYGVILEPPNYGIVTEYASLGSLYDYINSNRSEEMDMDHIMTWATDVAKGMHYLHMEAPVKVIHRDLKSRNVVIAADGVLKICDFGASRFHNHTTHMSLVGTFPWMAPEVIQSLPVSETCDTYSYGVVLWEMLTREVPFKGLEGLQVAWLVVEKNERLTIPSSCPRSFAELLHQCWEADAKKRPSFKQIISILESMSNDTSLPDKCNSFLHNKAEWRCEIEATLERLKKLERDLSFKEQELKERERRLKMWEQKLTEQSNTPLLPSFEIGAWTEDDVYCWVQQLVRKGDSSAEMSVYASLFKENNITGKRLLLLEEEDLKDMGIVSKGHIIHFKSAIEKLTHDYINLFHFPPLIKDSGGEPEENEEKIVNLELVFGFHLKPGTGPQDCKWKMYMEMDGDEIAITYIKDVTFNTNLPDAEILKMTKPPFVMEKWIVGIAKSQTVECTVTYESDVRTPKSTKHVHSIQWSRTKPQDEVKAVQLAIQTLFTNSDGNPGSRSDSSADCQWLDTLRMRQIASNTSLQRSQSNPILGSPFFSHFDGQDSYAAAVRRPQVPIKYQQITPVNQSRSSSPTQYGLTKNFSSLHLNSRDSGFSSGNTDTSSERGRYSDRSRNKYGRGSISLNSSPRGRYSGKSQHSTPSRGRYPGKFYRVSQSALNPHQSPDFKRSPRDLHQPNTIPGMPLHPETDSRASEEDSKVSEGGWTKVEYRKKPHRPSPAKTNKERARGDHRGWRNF
molecule,measurement,setting,value
TNFα,increased expression of DT entry receptor HB-EGF,HB-EGF,> 5 fold
"COc1ccc(C[C@H](N)C(=O)N[C@H]2[C@@H](O)[C@H](n3cnc4c(N(C)C)ncnc43)O[C@@H]2CO)cc1 [PURO, Puromycin]",mode of cell death (apoptosis / pyroptosis),[1],kills cells exclusively via apoptosis
same,chemokine/cytokine profile versus untreated,3D organotypic skin,very few cytokines/chemokines differed
"CC(C)[C@H](N)C(=O)N1CCC[C@H]1B(O)O [VbP, Talabostat]",mode of cell death (apoptosis / pyroptosis),[1],exclusively triggers pyroptosis
same,time to induce detectable pyroptosis,"[1]; wild-type N-TERT cells, PI positive cells",at least 5 hours
same,IL1β secretion and pyroptotic death in ZAKα KO cells,N-TERT cells,remained fully sensitive
same,cleaved GSDMD N-terminal fragment at the cell membrane,[2],prominently enriched at the cell membrane
same,phosphorylation of ASC,ASC,not phosphorylated
"C=CC(=O)N1CCCC(c2ccnc(Nc3cc(C(=O)Nc4cc(-n5cnc(C)c5)cc(C(F)(F)F)c4)ccc3C)n2)C1 (stereo not drawn) [M443, 4-methyl-N-[3-(4-methylimidazol-1-yl)-5-(trifluoromethyl)phenyl]-3-[[4-(1-prop-2-enoylpiperidin-3-yl)pyrimidin-2-yl]amino]benzamide]",effect on ANS-triggered NLRP1 hyperphosphorylation,NLRP1^DR,can effectively block ANS-triggered NLRP1 hyperphosphorylation
same,effect on UVB-induced IL1β / NLRP1 activation,human skin explants,reduction in UVB-induced IL1β; also recorded: effective at blocking UVB induced NLRP1 activation and IL1beta release
"COc1cc(O)c2c(c1)/C=C/C[C@H](O)[C@H](O)C(=O)/C=C\C[C@H](C)OC2=O [5-Z-7-oxozeanol, 5Z-7-Oxozeaenol]",effect on ANS-triggered NLRP1 hyperphosphorylation,NLRP1^DR,can effectively block ANS-triggered NLRP1 hyperphosphorylation
same,potency against ZAKα compared with TAK1,ZAKα,almost the same potency as its reported target TAK1
